Results from patent US9023876B2, “Compounds and methods for regulating integrins” (Adhaere Pharmaceuticals, Inc., priority 2010, dated 2015).

Experiments:
integrin CD11b/CD18 = target: T1, integrin CD11b/CD18 (Homo sapiens, UniProt P11215); assay: Flow cytometry, binding of activation sensitive mAb24 to K562 CD11b/CD18 cells; type: cell-based
T1 construct: expressed in transfected cells; host or cells: K562
Protocol: Flow cytometric analysis of K562 cells for integrin CD11b/CD18 cell surface expression was performed using published protocols. Briefly, cells were suspended in the assay buffer (TBS containing 1 mM each of Ca^2+ and Mg^2+ ions (TBS^++) and 0.1% BSA). […] Subsequently, the cells were washed three times with the assay buffer and incubated with goat anti-mouse-APC (1 mg/ml, Invitrogen) for 20 min at 4° C. Cells were washed twice with the assay buffer and analyzed using FACSCaliber flow cytometer (BD Biosciences, CA), counting at least 10,000 events. Data was analyzed using the CellQuest software (BD Biosciences). Assays were performed in triplicate and the data shown is from one of at least three independent experiments.
To identify binding site of LA1-3, which are predicted to bind the ligand-binding αA (or α1) domain in CD11b/CD18 [33, 39, 76], we generated K562 cells stably expressing mutant integrin CD11bE320A/CD18 (K562 E320A). The highly conserved residue E320 in the linker following the activation-sensitive α7-helix in the CD11b A-domain (αA-domain) acts as an endogenous ligand of the CD18 vWFA-domain (βA- or I-domain). The E320A mutation abolishes agonist Mn^2+-ion mediated increase in ligand-binding by CD11b/CD18. However, stabilization of αA in a high-affinity conformation by additional activating mutations overcomes this deficit and induces ligand binding in the E320A mutant. […]

mice = assay: Anti-glomerular basement membrane (anti-GBM) nephritis model; type: in vivo, mouse
From the text: To determine whether CD11b/CD18 agonists have any therapeutic advantages over antagonists, we performed a head-to-head comparison between a well-characterized CD11b/CD18 antagonist (anti-CD11b antibody M1/70, [82]) and LA1 using an established mouse model of kidney disease, the anti-glomerular basement membrane (anti-GBM) nephritis. This model is characterized by neutrophil infiltration that mediates urinary protein loss, including albumin. In line with an important role for CD11b in this disease, CD11b^−/− mice and anti-CD11b mAb treated rats show decreased leukocyte infiltration and a protection from proteinuria. Here, induction of disease in mice led to peak influx of neutrophils and maximal proteinuria at day 3.

murine neutrophils = assay: Neutrophil chemotaxis assay in Zigmond chamber, fMLP gradient; type: cell-based, mouse; settings: vs DMSO
Protocol: Neutrophil chemotaxis on 2D surfaces was performed using Zigmond chamber (Neuro Probe) as described on acid cleaned glass or Fg coated glass coverslips. Cell migration was allowed in a gradient of […] bacterial peptide formyl-methionyl-leucyl-phenylalanine (fMLP, Sigma), in the absence or presence of leukadherins ([…]). Cell migration was recorded at every 30 sec interval for a period of 25 min using a Nikon Eclipse 90i inverted microscope. Images were acquired with a Nikon DS camera using a PLAN APO 20X differential interference contrast (DIC) microscopy objective and captured into Nikon Imaging software. Analysis of neutrophil migration was performed with the motile population that had moved more than 10 μm using ImageJ software (NIH, USA) with manual cell tracking using the Ibidi chemotaxis and migration tool plugin for ImageJ. Migration velocity and the total displacement (distance from origin) were also analyzed. Quantitation was performed using at least 50 independent cells per condition from at least three independent experiments.
Leukocyte chemotaxis on 2D surfaces involves integrin-mediated sequential adhesion and de-adhesion steps [77]. […] To test if increased cell-adhesion by leukaderins affects cell migration, we used murine neutrophils chemotaxing in response to a gradient of chemokine peptide formyl-Met-Leu-Phe (fMLP). […]

Fischer 344 rats = assay: Balloon induced arterial injury in rats; type: in vivo, rat
From the text: All surgeries were under isoflurane anaesthesia (Baxter, Ill., USA). Balloon injury in the right iliac artery was inflicted with a 2F Fogarty catheter (Baxter Corp., Irvine, Calif., USA) adapted to a custom angiographic kit (Boston Scientific, Scimed). An aortotomy in the abdominal aorta was made to insert a 2F Fogarty embolectomy catheter to the level of the right iliac artery. The balloon was inflated to 1.5-1.6 atmospheres and retracted to the arteriotomy site three times. The aortic excision was repaired with 8.0 sutures. The abdominal cavity was closed by planes using interrupted suture pattern. Arterial specimens were collected 3-30 days after injury and fixed in 4% formalin-PBS (Sigma-Aldrich, St. Louis, Mo.) for 5 min and analyzed by histology and immunostaining
Elastica van Gieson staining was used for histochemical analyses to evaluate neointima formation. Morphometric analyses was performed in a blinded fashion using NIH ImageJ. Immunostaining with anti-rat CD68 (1:50, AbD Serotec) for the detection of macrophages in the tissue.
Leukocyte recruitment precedes neointimal thickening and restenosis following percutaneous transluminal coronary angioplasty (PTCA). […]

K562 CD11b/CD18 cells = assay: Cell viability assay (MTS); type: cell-based; settings: 24 h; concentrations as high as 50 μM
Protocol: Cell viability assay was performed as described. Briefly, K562 CD11b/CD18 cells (10,000/well) were incubated in 96 well plates (Corning, Corning, N.Y.) with increasing amounts of indicated compound for 24 h. The number of viable cells after 24 h was determined by using MTS reagent according to manufacturers protocol (Promega, Madison, Wis.) and using Spectramax M5 spectrophotometer (Molecular Devices) for reading of the assay plates. Data presented is representative of at least two independent experiments.

O=C(O)c1ccc(-c2ccc(/C=C3\SC(=S)N(Cc4ccccc4)C3=O)o2)cc1 [LA1]
binding of activation sensitive mAb24 to K562 CD11b/CD18 cells (integrin CD11b/CD18): increase | number of infiltrated neutrophils (neutrophil influx) (mice): significant and maximal decrease | proteinuria (mice): significant and maximal decrease | lateral migration of neutrophils (murine neutrophils): significant decrease | migration velocity of neutrophils (murine neutrophils): significant decrease | neointima to media ratio (Fischer 344 rats; rat arteries 21 days after balloon injury, vehicle 0.23±0.01): 0.16±0.02 | number of medial macrophages (CD68) (Fischer 344 rats; rat arteries three days post-injury, vehicle 42.2±6.7): 17.7±3.1 | in vitro cytotoxicity to K562 cells (K562 CD11b/CD18 cells): no cytotoxicity
